{
  "source": "patent US11370798B2",
  "about": "(Vertex Pharmaceuticals Incorporated, priority 2012, dated 2022)",
  "data": [
    {"system": "HCT116 colorectal cancer cells", "experiment": "Cisplatin sensitization assay (96 h cell viability MTS);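 note: Test-compound concentration that lowers the Cisplatin IC50 by a set fold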", "assay_type": "cell-based", "conditions": "compound and Cisplatin added simultaneously, Cisplatin sensitization value", "in_short": "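Compound and cisplatin added together as a full matrix of 2-fold serial dilutions from a top final concentration of 10 μM; cells incubated 96 h at 37° C, 5% CO2. Viability then read by MTS after 1 h further incubation; sensitization value reported in μM bins.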", "values": [
      {"smiles": "Nc1nn2cc(F)cnc2c1C(=O)Nc1cncc(F)c1N1CCN2CCOC[C@H]2C1", "note": "[I-N-135, (R)-2-amino-6-fluoro-N-(5-fluoro-4-(hexahydropyrazino[2,1-c][1,4]oxazin-8(1H)-yl)pyridin-3-yl)pyrazolo[1,5-a]pyrimidine-3-carboxamide]", "Cisplatin Sensitization Assay": "+++ (Cisplatin sensitization value of <0.02 μM)"},
      {"smiles": "Nc1nn2cc(F)cnc2c1C(=O)Nc1cnccc1N1CCN2C(=O)COCC2C1", "note": "(centres unmarked) [I-N-136, 2-amino-6-fluoro-N-(4-(4-oxohexahydropyrazino[2,1-c][1,4]oxazin-8(1H)-yl)pyridin-3-yl)pyrazolo[1,5-a]pyrimidine-3-carboxamide]", "Cisplatin Sensitization Assay": "++ (Cisplatin sensitization value>0.02 μM but <0.2 μM)"},
      {"smiles": "Nc1nn2cc(F)cnc2c1C(=O)Nc1cncc(F)c1N1CCN2CCOC[C@@H]2C1", "note": "[I-N-137, (S)-2-amino-6-fluoro-N-(5-fluoro-4-(hexahydropyrazino[2,1-c][1,4]oxazin-8(1H)-yl)pyridin-3-yl)pyrazolo[1,5-a]pyrimidine-3-carboxamide]", "Cisplatin Sensitization Assay": "++ (Cisplatin sensitization value>0.02 μM but <0.2 μM)"},
      {"smiles": "CN1CCN(c2c(F)cncc2NC(=O)c2c(N)nn3cc(C(C)(C)C#N)cnc23)CC1", "note": "[I-N-138, 2-amino-6-(2-cyanopropan-2-yl)-N-(5-fluoro-4-(4-methylpiperazin-1-yl)pyridin-3-yl)pyrazolo[1,5-a]pyrimidine-3-carboxamide]", "Cisplatin Sensitization Assay": "++ (Cisplatin sensitization value>0.02 μM but <0.2 μM)"},
      {"smiles": "CC(C)(O)CN1CCN(c2c(F)cncc2NC(=O)c2c(N)nn3cc(F)cnc23)CC1", "note": "[I-N-139, 2-amino-6-fluoro-N-(5-fluoro-4-(4-(2-hydroxy-2-methylpropyl)piperazin-1-yl)pyridin-3-yl)pyrazolo[1,5-a]pyrimidine-3-carboxamide]", "Cisplatin Sensitization Assay": "+++ (Cisplatin sensitization value of <0.02 μM)"},
      {"smiles": "CN1CCN(C(=O)N2CCN(c3c(F)cncc3NC(=O)c3c(N)nn4cc(F)cnc34)CC2)CC1", "note": "[I-N-140, 2-amino-6-fluoro-N-(5-fluoro-4-(4-(4-methylpiperazine-1-carbonyl)piperazin-1-yl)pyridin-3-yl)pyrazolo[1,5-a]pyrimidine-3-carboxamide]", "Cisplatin Sensitization Assay": "+++ (Cisplatin sensitization value of <0.02 μM)"},
      {"smiles": "Nc1nn2cc(F)cnc2c1C(=O)Nc1cnccc1N1CCOCC1", "note": "[I-N-141, 2-amino-6-fluoro-N-(4-morpholinopyridin-3-yl)pyrazolo[1,5-a]pyrimidine-3-carboxamide]", "Cisplatin Sensitization Assay": "+++ (Cisplatin sensitization value of <0.02 μM)"},
      {"smiles": "CC(C)(C#N)c1cnc2c(C(=O)Nc3cnccc3N3CCN(C4COC4)CC3)c(N)nn2c1", "note": "[I-N-142, 2-amino-6-(2-cyanopropan-2-yl)-N-(4-(4-(oxetan-3-yl)piperazin-1-yl)pyridin-3-yl)pyrazolo[1,5-a]pyrimidine-3-carboxamide]", "Cisplatin Sensitization Assay": "++ (Cisplatin sensitization value>0.02 μM but <0.2 μM)"},
      {"smiles": "CC(C#N)c1cnc2c(C(=O)Nc3cnccc3N3CCN(C4COC4)CC3)c(N)nn2c1", "note": "(centres unmarked) [I-N-143, 2-amino-6-(1-cyanoethyl)-N-(4-(4-(oxetan-3-yl)piperazin-1-yl)pyridin-3-yl)pyrazolo[1,5-a]pyrimidine-3-carboxamide]", "Cisplatin Sensitization Assay": "++ (Cisplatin sensitization value>0.02 μM but <0.2 μM)"},
      {"smiles": "CC(C)(C#N)c1cnc2c(C(=O)Nc3cncc(F)c3N3CCN(C4COC4)CC3)c(N)nn2c1", "note": "[I-N-144]", "Cisplatin Sensitization Assay": "+++ (Cisplatin sensitization value of <0.02 μM)"},
      {"smiles": "CN(C)S(=O)(=O)C1CCN(c2c(F)cncc2NC(=O)c2c(N)nn3cc(F)cnc23)CC1", "note": "[I-N-146, 2-amino-N-(4-(4-(N,N-dimethylsulfamoyl)piperidin-1-yl)-5-fluoropyridin-3-yl)-6-fluoropyrazolo[1,5-a]pyrimidine-3-carboxamide]", "Cisplatin Sensitization Assay": "+++ (Cisplatin sensitization value of <0.02 μM)"}
    ]}
  ]
}
